Measured values from PMC5218480 (PLoS ONE, 2017).

Tested on: MV-4-11 cells
Test: Gene expression microarray analysis (Affymetrix PrimeView) and GSEA
Format: cell-based, human
Parameters: RFU PODN (11730768_x_at) / Fold change /veh PODN (11730768_x_at) / RFU LINC00158 (11744669_a_at) / Fold change /veh LINC00158 (11744669_a_at) / RFU DUSP10 (11751237_a_at) / Fold change /veh DUSP10 (11751237_a_at) / RFU ID3 (11757404_x_at) / Fold change /veh ID3 (11757404_x_at) / RFU PLEKHG5 (11737974_s_at) / Fold change /veh PLEKHG5 (11737974_s_at) / RFU LRRC4B (11730491_at) / Fold change /veh LRRC4B (11730491_at) / RFU GIMAP4 (11747438_a_at) / Fold change /veh GIMAP4 (11747438_a_at) / RFU KRT8 (11758183_x_at) / Fold change /veh KRT8 (11758183_x_at) / RFU CNN1 (11734310_a_at) / Fold change /veh CNN1 (11734310_a_at) / RFU VPS37D (11726825_at) / Fold change /veh VPS37D (11726825_at) / RFU C10orf10 (11716522_x_at) / Fold change /veh C10orf10 (11716522_x_at) / RFU KIR2DL2 /// KIR2DL4 /// KIR2DL5A /// KIR2DL5B /// KIR2DS1 /// KIR2DS2 /// KIR2DS3 /// KIR2DS4 /// KIR3DL3 /// KIR3DL3 /// KIR3DS1 (11738374_at) / Fold change /veh KIR2DL2 /// KIR2DL4 /// KIR2DL5A /// KIR2DL5B /// KIR2DS1 /// KIR2DS2 /// KIR2DS3 /// KIR2DS4 /// KIR3DL3 /// KIR3DL3 /// KIR3DS1 (11738374_at) / RFU C1QL1 (11718748_at) / Fold change /veh C1QL1 (11718748_at) / RFU TMPRSS4 (11747572_a_at) / Fold change /veh TMPRSS4 (11747572_a_at) / RFU HAMP (11756126_x_at) / Fold change /veh HAMP (11756126_x_at) / RFU RNFT2 (11725882_a_at) / Fold change /veh RNFT2 (11725882_a_at) / RFU NR4A2 (11747474_a_at) / Fold change /veh NR4A2 (11747474_a_at) / RFU ABCC12 (11746883_a_at) / Fold change /veh ABCC12 (11746883_a_at) / RFU TMEM136 (11760407_x_at) / Fold change /veh TMEM136 (11760407_x_at) / RFU CLDN22 /// WWC2 (11732394_at) / Fold change /veh CLDN22 /// WWC2 (11732394_at) / RFU HLA-DPB1 (11760878_x_at) / Fold change /veh HLA-DPB1 (11760878_x_at) / RFU SPINT1 (11716480_a_at) / Fold change /veh SPINT1 (11716480_a_at) / RFU GAP43 (11754022_s_at) / Fold change /veh GAP43 (11754022_s_at) / RFU A4GNT (11735810_at) / Fold change /veh A4GNT (11735810_at) / RFU PRB3 (11715151_x_at) / Fold change /veh PRB3 (11715151_x_at) / RFU TUBB4B (11761932_at) / Fold change /veh TUBB4B (11761932_at) / RFU CAPN14 (11732068_a_at) / Fold change /veh CAPN14 (11732068_a_at) / RFU TMCC2 (11721928_a_at) / Fold change /veh TMCC2 (11721928_a_at) / RFU IRGQ (11745062_a_at) / Fold change /veh IRGQ (11745062_a_at) / RFU FAM174B (11720279_a_at) / Fold change /veh FAM174B (11720279_a_at) / RFU TMPRSS4 (11748680_a_at) / Fold change /veh TMPRSS4 (11748680_a_at) / RFU FAM212B (11763350_a_at) / Fold change /veh FAM212B (11763350_a_at) / RFU PLEKHG5 (11743358_a_at) / Fold change /veh PLEKHG5 (11743358_a_at) / RFU ZSCAN30 (11745921_a_at) / Fold change /veh ZSCAN30 (11745921_a_at) / RFU CMKLR1 (11741424_a_at) / Fold change /veh CMKLR1 (11741424_a_at) / RFU LOC101060620 /// MAPK8IP1 (11723275_at) / Fold change /veh LOC101060620 /// MAPK8IP1 (11723275_at) / RFU SPTSSB (11747773_x_at) / Fold change /veh SPTSSB (11747773_x_at) / RFU PRSS12 (11739890_at) / Fold change /veh PRSS12 (11739890_at) / RFU BIN1 (11741810_x_at) / Fold change /veh BIN1 (11741810_x_at) / RFU WNT11 (11732464_a_at) / Fold change /veh WNT11 (11732464_a_at) / RFU C10orf10 (11716521_a_at) / Fold change /veh C10orf10 (11716521_a_at) / RFU C5orf56 (11738089_at) / Fold change /veh C5orf56 (11738089_at) / RFU CYB561 (11721691_x_at) / Fold change /veh CYB561 (11721691_x_at) / RFU ANKRD19P (11752326_a_at) / Fold change /veh ANKRD19P (11752326_a_at) / RFU OR2T12 /// OR2T33 /// OR2T8 (11738714_s_at) / Fold change /veh OR2T12 /// OR2T33 /// OR2T8 (11738714_s_at) / RFU VCAN (11748164_a_at) / Fold change /veh VCAN (11748164_a_at) / RFU JSRP1 (11732532_at) / Fold change /veh JSRP1 (11732532_at) / RFU KRTAP10-11 (11738290_x_at) / Fold change /veh KRTAP10-11 (11738290_x_at) / RFU MYO3A (11730013_a_at) / Fold change /veh MYO3A (11730013_a_at) / RFU EBF3 (11725865_a_at) / Fold change /veh EBF3 (11725865_a_at) / RFU CAMK2N1 (11719241_x_at) / Fold change /veh CAMK2N1 (11719241_x_at) / RFU C5orf56 (11738088_a_at) / Fold change /veh C5orf56 (11738088_a_at) / RFU OLFML3 (11715873_a_at) / Fold change /veh OLFML3 (11715873_a_at) / RFU LOC100653217 /// NTM (11731650_a_at) / Fold change /veh LOC100653217 /// NTM (11731650_a_at) / RFU MAPK11 (11762145_a_at) / Fold change /veh MAPK11 (11762145_a_at) / RFU FIZ1 (11724087_x_at) / Fold change /veh FIZ1 (11724087_x_at) / RFU OASL (11726364_x_at) / Fold change /veh OASL (11726364_x_at) / RFU SOX15 (11748057_x_at) / Fold change /veh SOX15 (11748057_x_at) / RFU CD79A (11719716_a_at) / Fold change /veh CD79A (11719716_a_at) / RFU HIST1H1D (11736915_at) / Fold change /veh HIST1H1D (11736915_at) / RFU CASKIN2 (11723855_a_at) / Fold change /veh CASKIN2 (11723855_a_at) / RFU LOC730098 (11760151_x_at) / Fold change /veh LOC730098 (11760151_x_at) / RFU OR4N2 (11742367_at) / Fold change /veh OR4N2 (11742367_at) / RFU PRRT2 (11749266_a_at) / Fold change /veh PRRT2 (11749266_a_at) / RFU SNX32 (11753110_a_at) / Fold change /veh SNX32 (11753110_a_at) / RFU CDHR5 (11726645_a_at) / Fold change /veh CDHR5 (11726645_a_at) / RFU RCAN1 (11760418_a_at) / Fold change /veh RCAN1 (11760418_a_at) / RFU FAM167A (11723789_a_at) / Fold change /veh FAM167A (11723789_a_at) / RFU FAM26E (11764081_at) / Fold change /veh FAM26E (11764081_at) / RFU ISYNA1 (11749810_s_at) / Fold change /veh ISYNA1 (11749810_s_at) / RFU ACY1 (11761880_at) / Fold change /veh ACY1 (11761880_at) / RFU 11764098_at / Fold change /veh 11764098_at / RFU SAMD14 (11745864_x_at) / Fold change /veh SAMD14 (11745864_x_at) / RFU NPB (11741838_a_at) / Fold change /veh NPB (11741838_a_at) / RFU TMPRSS6 (11731388_a_at) / Fold change /veh TMPRSS6 (11731388_a_at) / RFU KRTAP10-2 (11738614_at) / Fold change /veh KRTAP10-2 (11738614_at) / RFU ARHGAP8 /// PRR5-ARHGAP8 (11727945_x_at) / Fold change /veh ARHGAP8 /// PRR5-ARHGAP8 (11727945_x_at) / RFU KRTAP5-7 /// NADSYN1 (11734609_at) / Fold change /veh KRTAP5-7 /// NADSYN1 (11734609_at) / RFU RASL12 (11751679_a_at) / Fold change /veh RASL12 (11751679_a_at) / RFU CDKN2B (11736163_a_at) / Fold change /veh CDKN2B (11736163_a_at) / RFU PRF1 (11729649_at) / Fold change /veh PRF1 (11729649_at) / RFU, ZNF638 /// ZNF638-IT1 / Fold change vs veh, ZNF638 /// ZNF638-IT1 / RFU, PANK3 / Fold change vs veh, PANK3 / RFU, SH3YL1 / Fold change vs veh, SH3YL1 / RFU, ZEB2 / Fold change vs veh, ZEB2 / RFU, NRIP1 / Fold change vs veh, NRIP1 / RFU, PTTG1IP / Fold change vs veh, PTTG1IP / RFU, CAPN2 / Fold change vs veh, CAPN2 / RFU, MED14 / Fold change vs veh, MED14 / RFU, SNORA58 / Fold change vs veh, SNORA58 / RFU, C1orf63 / Fold change vs veh, C1orf63 / RFU, LRRFIP1 / Fold change vs veh, LRRFIP1 / RFU, NDUFAF7 / Fold change vs veh, NDUFAF7 / RFU, SLC12A2 / Fold change vs veh, SLC12A2 / RFU, IBTK / Fold change vs veh, IBTK / RFU, ESF1 / Fold change vs veh, ESF1 / Fold change vs veh, TMEM50B / RFU, TAOK1 / Fold change vs veh, TAOK1 / RFU, ACBD3 / Fold change vs veh, ACBD3 / RFU, TMA16 / Fold change vs veh, TMA16 / RFU, RWDD3 / Fold change vs veh, RWDD3 / RFU, BCAT1 / Fold change vs veh, BCAT1 / RFU, EDEM3 / Fold change vs veh, EDEM3 / RFU, TMEM33 / Fold change vs veh, TMEM33 / RFU, WDR75 / Fold change vs veh, WDR75 / RFU, AHCTF1 / Fold change vs veh, AHCTF1 / RFU, TFRC / Fold change vs veh, TFRC / RFU, ZDHHC17 / Fold change vs veh, ZDHHC17 / RFU, NOM1 / Fold change vs veh, NOM1 / RFU, ARL8B / Fold change vs veh, ARL8B / RFU, ZBTB11 / Fold change vs veh, ZBTB11 / RFU, TAMM41 / Fold change vs veh, TAMM41 / RFU, KIAA1704 /// LOC100996395 / Fold change vs veh, KIAA1704 /// LOC100996395 / RFU, ING1 / Fold change vs veh, ING1 / RFU, TRMT61B / Fold change vs veh, TRMT61B / RFU, FUBP3 / Fold change vs veh, FUBP3 / RFU, TP53 / Fold change vs veh, TP53 / RFU, TNKS2 / Fold change vs veh, TNKS2 / RFU, ZFP14 / Fold change vs veh, ZFP14 / RFU, ACTR2 / Fold change vs veh, ACTR2 / RFU, PPP3R1 / Fold change vs veh, PPP3R1 / RFU, PIK3R1 / Fold change vs veh, PIK3R1 / RFU, HNRNPA1 / Fold change vs veh, HNRNPA1 / RFU, RNF170 / Fold change vs veh, RNF170 / RFU, ZNF28 / Fold change vs veh, ZNF28 / RFU, RNGTT / Fold change vs veh, RNGTT / RFU, OGT / Fold change vs veh, OGT / RFU, BRD1 / Fold change vs veh, BRD1 / RFU, MARS / Fold change vs veh, MARS / RFU, ZNF655 / Fold change vs veh, ZNF655 / RFU, FAHD1 / Fold change vs veh, FAHD1 / RFU, BDP1 / Fold change vs veh, BDP1 / RFU, LRRCC1 / Fold change vs veh, LRRCC1 / RFU, ARID1A / Fold change vs veh, ARID1A / RFU, ZNF146 / Fold change vs veh, ZNF146 / RFU, ZNF330 / Fold change vs veh, ZNF330 / RFU, GPN3 / Fold change vs veh, GPN3 / RFU, C9orf123 / Fold change vs veh, C9orf123 / RFU, N4BP2L2 / Fold change vs veh, N4BP2L2 / RFU, ARFIP1 / Fold change vs veh, ARFIP1 / RFU, FAM179B / Fold change vs veh, FAM179B / RFU, BCL10 / Fold change vs veh, BCL10 / RFU, UHRF1BP1L / Fold change vs veh, UHRF1BP1L / RFU, BET1 / Fold change vs veh, BET1 / RFU, CNOT2 / Fold change vs veh, CNOT2 / RFU, ZNF268 / Fold change vs veh, ZNF268 / Fold change vs veh, ZNF507 / RFU, DGCR2 / Fold change vs veh, DGCR2 / RFU, WDSUB1 / Fold change vs veh, WDSUB1 / Fold change vs veh, HSP90B1 /// MIR3652 / RFU, ADSS / Fold change vs veh, ADSS / RFU, GK / Fold change vs veh, GK / RFU, ZNF148 / Fold change vs veh, ZNF148 / RFU, TAF9 / Fold change vs veh, TAF9 / RFU, SLC1A5 / Fold change vs veh, SLC1A5 / RFU, SLMO2 / Fold change vs veh, SLMO2 / RFU, ABCC4 / Fold change vs veh, ABCC4 / RFU, LOC101060439 /// RAP1B / Fold change vs veh, LOC101060439 /// RAP1B / RFU, RFX7 / Fold change vs veh, RFX7 / RFU, GTPBP10 / Fold change vs veh, GTPBP10 / RFU, CNEP1R1 / Fold change vs veh, CNEP1R1 / RFU, BIVM-ERCC5 /// ERCC5 / Fold change vs veh, BIVM-ERCC5 /// ERCC5 / RFU, ILF3 / Fold change vs veh, ILF3 / RFU 11762660_at / Fold change /veh 11762660_at / RFU VCAN (11757783_s_at) / Fold change /veh VCAN (11757783_s_at) / RFU DDX43 (11728927_at) / Fold change /veh DDX43 (11728927_at) / RFU KRT8 (11758188_x_at) / Fold change /veh KRT8 (11758188_x_at) / RFU NKD1 (11759106_at) / Fold change /veh NKD1 (11759106_at) / RFU SRD5A1 (11742802_a_at) / Fold change /veh SRD5A1 (11742802_a_at) / RFU TPSAB1 /// TPSB2 (11721975_s_at) / Fold change /veh TPSAB1 /// TPSB2 (11721975_s_at) / RFU GSTM3 (11746129_a_at) / Fold change /veh GSTM3 (11746129_a_at) / RFU IL23R (11737362_x_at) / Fold change /veh IL23R (11737362_x_at) / RFU TMEM51 (11727254_a_at) / Fold change /veh TMEM51 (11727254_a_at) / RFU PIWIL2 (11732686_x_at) / Fold change /veh PIWIL2 (11732686_x_at) / RFU ORM1 (11744905_x_at) / Fold change /veh ORM1 (11744905_x_at) / RFU CCDC152 (11743942_at) / Fold change /veh CCDC152 (11743942_at) / RFU ECM1 (11717891_a_at) / Fold change /veh ECM1 (11717891_a_at) / RFU IL23R (11748794_a_at) / Fold change /veh IL23R (11748794_a_at) / RFU TNFAIP8L3 (11732012_x_at) / Fold change /veh TNFAIP8L3 (11732012_x_at) / RFU MBOAT4 (11741988_at) / Fold change /veh MBOAT4 (11741988_at) / RFU 11764193_at / Fold change /veh 11764193_at / RFU TMEM53 (11763286_at) / Fold change /veh TMEM53 (11763286_at) / RFU MAGEB2 (11727129_at) / Fold change /veh MAGEB2 (11727129_at) / RFU TMEM200A (11744735_a_at) / Fold change /veh TMEM200A (11744735_a_at) / RFU CCDC152 (11751479_a_at) / Fold change /veh CCDC152 (11751479_a_at) / RFU FAM211A (11726209_a_at) / Fold change /veh FAM211A (11726209_a_at) / RFU RGS16 (11746705_a_at) / Fold change /veh RGS16 (11746705_a_at) / RFU VCAN (11755009_s_at) / Fold change /veh VCAN (11755009_s_at) / RFU RHOB (11743442_s_at) / Fold change /veh RHOB (11743442_s_at) / RFU RGS16 (11720943_a_at) / Fold change /veh RGS16 (11720943_a_at) / RFU RGS16 (11720944_at) / Fold change /veh RGS16 (11720944_at) / RFU, VPS4B / Fold change vs veh, VPS4B / RFU, CREB1 / Fold change vs veh, CREB1 / RFU, DNAJC13 / Fold change vs veh, DNAJC13 / RFU, GNAQ / Fold change vs veh, GNAQ / RFU, CDK5R1 / Fold change vs veh, CDK5R1 / RFU, ZRANB3 / Fold change vs veh, ZRANB3 / RFU, CUL4A / Fold change vs veh, CUL4A / RFU, CCNY / Fold change vs veh, CCNY / RFU, UFL1 / Fold change vs veh, UFL1 / RFU, COG3 / Fold change vs veh, COG3 / RFU, DIAPH2 / Fold change vs veh, DIAPH2 / RFU, SKA2 / Fold change vs veh, SKA2 / RFU, AFF3 / Fold change vs veh, AFF3 / RFU, LMF1 / Fold change vs veh, LMF1 / RFU, IPO11 / Fold change vs veh, IPO11 / RFU, DFFB / Fold change vs veh, DFFB / RFU, FOXP1 / Fold change vs veh, FOXP1 / RFU, CARD8 / Fold change vs veh, CARD8 / RFU, STRN3 / Fold change vs veh, STRN3 / RFU, ADK / Fold change vs veh, ADK / RFU, RASSF2 / Fold change vs veh, RASSF2 / RFU, WIPF1 / Fold change vs veh, WIPF1 / RFU, LARP1B / Fold change vs veh, LARP1B / RFU, RASA1 / Fold change vs veh, RASA1 / RFU, RB1 / Fold change vs veh, RB1 / RFU, PPFIA1 / Fold change vs veh, PPFIA1 / RFU, MAT2A / Fold change vs veh, MAT2A / RFU, CCT5 / Fold change vs veh, CCT5 / RFU, WDR92 / Fold change vs veh, WDR92 / RFU, CUX1 / Fold change vs veh, CUX1 / RFU, TTC7A / Fold change vs veh, TTC7A / RFU, TMEM135 / Fold change vs veh, TMEM135 / RFU, DEPTOR / Fold change vs veh, DEPTOR / RFU, CPM / Fold change vs veh, CPM / RFU, DNAJB6 / Fold change vs veh, DNAJB6 / RFU, CACNA2D3 / Fold change vs veh, CACNA2D3 / RFU, DTX4 / Fold change vs veh, DTX4 / RFU, TFCP2 / Fold change vs veh, TFCP2 / RFU, GMCL1 /// GMCL1P1 / Fold change vs veh, GMCL1 /// GMCL1P1 / RFU, AEBP2 / Fold change vs veh, AEBP2 / RFU, SNHG1 /// SNORD22 /// SNORD25 /// SNORD26 /// SNORD27 /// SNORD28 /// SNORD29 /// SNORD31 / Fold change vs veh, SNHG1 /// SNORD22 /// SNORD25 /// SNORD26 /// SNORD27 /// SNORD28 /// SNORD29 /// SNORD31 / Fold change (Aza/veh), C12orf56 (ProbeSet 11735607_a_at) / Fold change (ACY-1035/veh), C12orf56 (ProbeSet 11735607_a_at) / Fold change (Aza/veh), FGFR1OP (ProbeSet 11751329_s_at) / Fold change (ACY-1035/veh), FGFR1OP (ProbeSet 11751329_s_at) / Fold change (Aza/veh), VPS36 (ProbeSet 11739960_a_at) / Fold change (ACY-1035/veh), VPS36 (ProbeSet 11739960_a_at) / RFU SYPL1 (11715823_x_at) / Fold change /veh SYPL1 (11715823_x_at) / RFU IGFBP7 (11715501_s_at) / Fold change /veh IGFBP7 (11715501_s_at) / RFU REEP3 (11722064_at) / Fold change /veh REEP3 (11722064_at) / RFU IGLL1 (11728026_x_at) / Fold change /veh IGLL1 (11728026_x_at): dose or concentration left out as unconfirmed
Conditions: MV-4-11 cells, 48 hours

How did the “Fold change /veh JSRP1 (11732532_at)” value turn out when `Nc1ccc(-c2cccs2)cc1NC(=O)c1ccc2c(c1)cc(C1CC1)n2CCN1CCOCC1` [ACY-1035] was run?
The value was 0.91.
